Assay results from PubChem BioAssay (NCI).
Several values for one entry are separate records, joined by “and”; a condition that tells them apart may be missing. Equal values may be shown once.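 1) Cells in 96-well plates. 2) Compound, 48 h, 5 concentrations. 3) Linear interpolation between surrounding doses. 4) Unreached endpoint = highest concentration. GI50 is the concentration that inhibits growth by half. The concentration for full growth arrest is given as TGI.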

Columns and labels:
Experiment in all cases: NCI-60 cell line screen, 48 h
[1] = system: A549 NSCLC
[2] = system: BT-549 breast
[3] = system: MCF7 breast
[4] = system: MOLT-4 leukemia
[5] = system: NCI-H226 lung
[6] = system: NCI/ADR-RES ovarian
[7] = system: OVCAR-5 ovarian
[8] = system: RPMI-8226 leukemia
[9] = system: SF-539 CNS
[10] = system: T-47D breast

SMILES	GI50 [1] [µM]	TGI [1]	GI50 [2] [µM]	TGI [2] [µM]	GI50 [3] [µM]	TGI [3] [µM]	GI50 [4] [µM]	GI50 [5] [µM]	TGI [5]	GI50 [6] [µM]	TGI [6] [µM]	GI50 [7] [µM]	TGI [7]	GI50 [8] [µM]	TGI [8]	GI50 [9] [µM]	TGI [9]	GI50 [10] [µM]	TGI [10] [µM]	TGI [4]
CCOC(=O)N1CCN(/[N+]([O-])=N/Oc2ccc([N+](=O)[O-])cc2[N+](=O)[O-])CC1	3.63	14.1 µM	2.62	18.6	0.365	8.16	0.482	3.77	16.7 µM	3.88	14.9	2.16	9.09 µM	0.34	12.9 µM	0.424	20.9 µM	8	> 67.1	
OC(Cc1ccncc1)C(Cl)(Cl)Cl (stereo not given)	> 100	> 100 µM	> 100	> 100	> 100	> 100	0.0988	> 100	> 100 µM	> 100	> 100	> 100	> 100 µM	0.0586	> 100 µM	> 100	> 100 µM	> 100	> 100	> 100 µM
COc1ccc2[nH]cc(-c3ccc(-c4c[nH]c5ccc(OC)cc45)s3)c2c1	3.94	21.9 µM	7.44	20.9	4.72	27	1.16	8.95	> 42.9 µM	3.78	19.5	6.43	18.7 µM	2.83	21 µM	3.41	10.7 µM	11.1	41.5	6.95 µM
C/C(=N\NC(=S)N1CC2CCC(CC2)C1)c1nccs1		8.87 µM		20		14			4.7 µM		3.9		15.8 µM		20.8 µM		3.57 µM		14.6	20.7 µM
O=C(Nc1ccc([As](=O)(O)O)cc1)Nc1cccc(Cl)c1Cl		> 100 µM		> 100		> 100			> 100 µM		> 100		> 100 µM		> 100 µM		> 100 µM			
C=C(C)C(O)CCC1(C)C=Cc2c(c(C)cc3c2[nH]c2ccccc23)O1 (stereo not given)	5.02	25 µM and 16.1 µM	12.9	25.5		26.4	3.47		22.7 µM and 21.7 µM		22.6	2.11	8.96 µM and 6.03 µM	2.96	25 µM and 8.01 µM	3.64	9.45 µM and 13.2 µM		21.5	18.7 µM and 13.8 µM
COC(=O)c1ccc(-c2nc3cc(Cl)c(Cl)cc3nc2C#N)cc1	> 100	> 100 µM	> 100	> 100	> 100	> 100	> 100	> 100	> 100 µM	> 100	> 100					> 100	> 100 µM	> 100	> 100	> 100 µM
CN(/N=C/c1cccc2cccnc12)c1ccc([N+](=O)[O-])cc1[N+](=O)[O-]		> 100 µM		59.7		> 100			64.4 µM		> 100		> 89.6 µM		> 100 µM		32.1 µM		85.4	> 100 µM
O.O.[NH-]C1(C(=O)O)CCCC1.[NH-]C1(C(=O)O)CCCC1.[Ni+2]		> 100 µM	> 100	> 100		> 100			> 100 µM		> 100		> 100 µM		> 100 µM		> 100 µM	> 100	> 100	> 100 µM
CCN(Cc1cc(Nc2nc(C)cn3c(-c4cn[nH]c4)cnc23)sn1)C(C)(C)CO	0.0543	2.21 µM	0.0458	1.18	0.026	2.01	0.0465	< 0.0106	0.513 µM	1.12	> 44.7	0.0676	10.7 µM	2.41	10.1 µM	0.0179	0.118 µM	0.0689	18.5	12.4 µM
C[C@]12CC[C@@H]3c4ccc(OC(=O)N(CCCl)CCCl)cc4CC[C@H]3[C@@H]1CC[C@@H]2O	2.46		4.64	17.1	1.08		1.78	3.98	22.3 µM	1.92	8.81	9.98		1.62	5.42 µM	1.69	4.27 µM	4.83	40.7	8.15 µM
COc1ccc(-c2cc3c(c4cc(OC)ccc24)C(=O)OC3=O)cc1		> 100 µM		> 100		> 100			> 100 µM		> 100		> 100 µM		> 100 µM				> 100	> 100 µM
CC[C@@H]1c2c(C#N)ncn2-c2cnc(Nc3ccc(C(=O)NC4CCN(C5CCN(CC6CC6)CC5)CC4)cc3OC)nc2N1C1CCCC1	0.0401	1.12 µM	0.485	1.85	0.00514	1.2	0.037	1.31	2.64 µM	1.29	2.8	0.0449	1.39 µM	0.083	2.97 µM	0.0493	0.888 µM	1.3	2.88	1.51 µM
C[C@]12C[C@H](CCCCCCNCCOC(=O)NCCCc3ccc(N(CCCl)CCCl)cc3)C3=C4CCC(=O)C=C4CCC3C1CC[C@@H]2O (stereo not given in full)			1.6	3.09	0.3	3.05	0.34	2.15	4.15 µM	14	36.2	5.84	11 µM	0.304	1.06 µM	1.4	3.33 µM	1.17	4.5	1.56 µM
